According to patent US5064813A, “Combination therapy for selected sex steroid dependent cancers” (priority 1989, dated 1991):

Assays:
[1] = test system: serum testosterone; test: LHRH agonist-induced serum testosterone in the dog (RIA); type: in vivo; details: dogs; for prevention of the LHRH agonist-induced rise in serum testosterone: per os three times daily with 50 μg LHRH-A daily (ketoconazole 200 mg; aminoglutethimide 125 mg plus hydrocortisone), first days of treatment, FIG. 2 and 3
Protocol: Eighteen mongrel dogs weighing between 20-30 kg were randomly divided into three groups. The animals were housed one per cage and fed Purina Dog Chow and tap water ad libitum.
The animals of group 1 were injected daily (at 0700h) with 50 μg of the LHRH agonist [D-Trp^6, des-Gly-NH2^10 ]LHRH ethylamide (LHRH-A). In group 2, the animals were also injected daily with 50 μg of LHRH-A and took in addition 200 mg of ketoconazole per os at 0700h, 1500h and 2300h. The animals of group 3 received daily 50 μg of LHRH-A and 125 mg of aminoglutethimide per os at 0700h, 1500h, 2300h plus 10 mg of hydrocortisone twice daily.
Blood samples were collected at 0700h, 0900h, 1100h and 1500h one day before treatment and every day during the treatment. Plasma was extracted with diethyl ether and testosterone was separated on LH-20 columns before RIA measurements.

[2] = test system: advanced breast cancer; details: cited from earlier work
[3] = test system: testosterone levels; details: rodents, in combination with chronic administration of Leuprolide; Santen et al. 1984; cited from earlier work

For CCNC(=O)[C@@H]1CCCN1C(=O)[C@H](CCCNC(=N)N)NC(=O)[C@H](CC(C)C)NC(=O)[C@@H](Cc1c[nH]c2ccccc12)NC(=O)[C@H](Cc1ccc(O)cc1)NC(=O)[C@H](CO)NC(=O)[C@H](Cc1c[nH]c2ccccc12)NC(=O)[C@H](Cc1c[nH]cn1)NC(=O)[C@@H]1CCC(=O)N1 [[D-Trp^6 des-Gly-NH2^10]LHRH ethylamide, [D-Trp^6, des-Gly-NH2^10]LHRH ethylamide], the “level of serum testosterone on day 19” value ([1]; daily injection of 50 μg, day 19, FIG. 1) was “near-castration levels” and the “increase in serum testosterone” value ([1]; daily injection of 50 μg, one to six days following start of treatment, FIG. 1) was “approximately 500 % above control”.

For CC/C(=C(\c1ccccc1)c1ccc(OCCN(C)C)cc1)c1ccccc1 [Tamoxifen, (Z)-2-[4-(1,2-diphenyl-1-butenyl)phenoxy]-N,N-dimethylethanamine], the “remission of advanced breast cancer, share of the patients treated” value ([2]; Tamoxifen alone, Mouridsen et al. 1978) is given as “about 30%” and the “objective remission of breast cancer” value ([2]; combined use with the LH-RH agonist Buserelin, Klijn et al. 1984) is given as 35%.

In the case of CC(=O)N1CCN(c2ccc(OCC3COC(Cn4ccnc4)(c4ccc(Cl)cc4Cl)O3)cc2)CC1 (stereo not shown) [ketoconazole], the “basal and Leuprolide stimulated testosterone levels” value [3] is given as “decreased” and the “prevention of the LHRH agonist-induced rise in serum testosterone” value [1] is given as “almost completely prevented”.

In the case of CCC1(c2ccc(N)cc2)CCC(=O)NC1=O (stereo not shown) [aminoglutethimide, 3-(4-aminophenyl)-3-ethyl-2,6-piperidinedione], the “prevention of the LHRH agonist-induced rise in serum testosterone” value [1] is reported as “almost completely prevented”.
